Reference: paper PMC6543015, “Exploring the overlapping binding sites of ifenprodil and EVT‐101 in GluN2B‐containing NMDA receptors using novel chicken embryo forebrain cultures and molecular modeling” (Pharmacology Research & Perspectives, 2019)
Where two headings read alike, the source gives them in different places.

Tests used:
[1] = molecular target: recombinant GluN1/GluN2B receptors; settings: recombinant GluN1/GluN2B in X. laevis oocytes, electrophysiology; cited from earlier work
[2] = molecular target: native GluN2B‐containing NMDA receptors (Gallus gallus, UniProt F1NMB0+Q4KXT1); experiment: Calcium influx measurement (Fura-2) in E10 chicken embryo forebrain cell culture at DIV1, induced with NMDA and glycine; format: cell-based, chicken (Gallus gallus); settings: for EC50: primary cultures from chicken embryo forebrain (E10), read-out: EC50, inhibition of calcium influx; for Emax: read-out: calcium influx blocked
Description: The eggs were submerged in crushed ice for 7 minutes to anesthetize the embryos before decapitation. The forebrain was surgically removed, and the meninges were discarded. The tissue was homogenized by chopping with a scalpel before trypsination in buffered solutions as previously described.30, 31 Cells were suspended in DMEM supplemented with 1% N‐2, 100 U/mL penicillin and 0.1 mg/mL streptomycin (Pen‐Strep), 10% fetal bovine serum (FBS), and 0.75% GlutaMAX™. Cells were seeded (1.7 × 10^6 cells/mL) on 35 mm Petri dishes or in 96‐well plates (Corning® CellBIND® 96 well plates; Merck) precoated with poly‐L‐lysine, and incubated at 37°C, with 5% CO2. These cultures contain an abundance of functional GluN2B receptors on DIV1 (A. Ring, pers. commun.).
Fura‐2 fluorescence was measured using CLARIOstar® plate reader (BMG Labtech, Germany). Intracellular Ca^2+ changes were expressed as changes in 340/380 nm fluorescence emission ratio. The wash buffer was then carefully replaced with test compound (20 nmol/L to 10 μmol/L) in standard buffer (n = 4 per concentration, two compounds per 96‐well plate). NMDA receptor‐mediated Ca^2+ influx was induced by NMDA (0.2 mmol/L) and glycine (0.1 mmol/L) in each well. The resulting rise in intracellular Ca^2+ was expressed as a change in the 340/380 emission ratio by subtracting the initial Ca^2+ level from the NMDA stimulated Ca^2+ responses. […] Inhibition curves for each compound were established by dose response experiments (n ≥ 5). For Ro 04‐5595, four representative IC50 values were chosen to make Figure 2A, while 13 experiments around the median were chosen for Figure 2C.

[3] = molecular target: recombinant GluN1/GluN2B receptors; set-up: method as in PMID 22197913; settings: recombinant GluN1/GluN2B in X. laevis oocytes, electrophysiology; cited from earlier work
[4] = E10 chicken forebrain cell culture at DIV 1, NMDA 200 and glycine 100 μmol/L, Fura-2, read-out: IC50 Chicken (present work)
[5] = maximal block by GluN2B-specific allosteric antagonists, chicken forebrain culture

Sequence of native GluN2B‐containing NMDA receptors (F1NMB0 entry or part of it, other chains not shown): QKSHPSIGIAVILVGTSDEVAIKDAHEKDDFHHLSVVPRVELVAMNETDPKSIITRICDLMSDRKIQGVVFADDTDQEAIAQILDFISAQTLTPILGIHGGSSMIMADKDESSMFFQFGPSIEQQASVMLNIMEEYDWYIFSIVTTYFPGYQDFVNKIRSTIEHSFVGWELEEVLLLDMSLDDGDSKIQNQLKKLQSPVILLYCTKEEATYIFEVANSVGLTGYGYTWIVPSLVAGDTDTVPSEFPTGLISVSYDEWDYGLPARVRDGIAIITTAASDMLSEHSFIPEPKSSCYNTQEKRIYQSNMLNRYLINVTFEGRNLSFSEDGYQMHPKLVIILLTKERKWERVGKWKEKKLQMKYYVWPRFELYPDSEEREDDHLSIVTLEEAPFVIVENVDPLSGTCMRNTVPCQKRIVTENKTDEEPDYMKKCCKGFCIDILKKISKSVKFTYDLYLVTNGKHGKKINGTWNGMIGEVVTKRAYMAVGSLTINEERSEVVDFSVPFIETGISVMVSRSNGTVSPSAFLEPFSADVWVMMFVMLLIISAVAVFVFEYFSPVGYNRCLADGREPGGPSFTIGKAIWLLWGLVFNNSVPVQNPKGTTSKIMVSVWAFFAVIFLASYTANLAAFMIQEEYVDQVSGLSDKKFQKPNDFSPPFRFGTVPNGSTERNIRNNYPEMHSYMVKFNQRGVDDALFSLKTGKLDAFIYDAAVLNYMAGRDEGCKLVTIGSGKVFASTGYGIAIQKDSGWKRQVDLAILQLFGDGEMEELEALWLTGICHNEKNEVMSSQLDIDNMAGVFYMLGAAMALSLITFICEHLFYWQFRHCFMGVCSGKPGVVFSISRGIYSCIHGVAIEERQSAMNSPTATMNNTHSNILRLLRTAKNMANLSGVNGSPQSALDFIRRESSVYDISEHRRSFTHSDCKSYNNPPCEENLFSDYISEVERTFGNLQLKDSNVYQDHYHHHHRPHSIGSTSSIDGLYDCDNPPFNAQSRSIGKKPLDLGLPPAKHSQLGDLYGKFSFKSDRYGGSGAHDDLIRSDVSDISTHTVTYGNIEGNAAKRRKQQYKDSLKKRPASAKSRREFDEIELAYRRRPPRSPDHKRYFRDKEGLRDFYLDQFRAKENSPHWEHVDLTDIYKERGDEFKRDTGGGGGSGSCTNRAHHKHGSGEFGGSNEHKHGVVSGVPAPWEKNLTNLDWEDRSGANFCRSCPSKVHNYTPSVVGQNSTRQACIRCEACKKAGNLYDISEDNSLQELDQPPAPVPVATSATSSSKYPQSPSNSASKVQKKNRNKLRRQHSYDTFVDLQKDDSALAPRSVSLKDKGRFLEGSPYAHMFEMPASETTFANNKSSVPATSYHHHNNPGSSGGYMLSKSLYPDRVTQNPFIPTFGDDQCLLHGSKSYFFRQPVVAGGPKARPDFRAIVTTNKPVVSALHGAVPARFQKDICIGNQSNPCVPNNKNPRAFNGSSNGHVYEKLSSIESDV

| Emax [2, 5] [%] | SMILES | IC50 [1] [nM] | IC50 [2, 4] [nM] | calcium influx blocked [2, 5] | EC50 [2] [nM] | IC50 [3] [nM] | Emax [2] [%] | IC50 ([2]; chicken forebrain culture calcium influx assay, read-out: IC50 value) [nM] |
| --- | --- | --- | --- | --- | --- | --- | --- | --- |
|  | Cc1nccn1Cc1cc(-c2ccc(F)c(C(F)F)c2)cnn1.Cl.Cl [EVT‐101] | 12 ± 0.2 | 22 ± 8 | approximately 70% | 22 ± 8 |  |  |  |
| ~70 | OC(CN1CCC(Cc2ccc(F)cc2)CC1)c1ccc(Cl)cc1 (stereo not shown) [Eliprodil, eliprodil] | 780 ± 90 | 1260 ± 683 |  | 1300 ± 700 | 930 ± 140 |  |  |
|  | CC(C(O)c1ccc(O)cc1)N1CCC(Cc2ccccc2)CC1 (stereo not shown) [Ifenprodil, ifenprodil] | 110 ± 10 | 103 ± 39 |  | 100 ± 40 | 130 ± 10 | ~70 |  |
|  | COc1cc2c(cc1O)C(CCc1ccc(Cl)cc1)N(C)CC2 (stereo not shown) [Ro 04‐5595] |  | 186 ± 35 |  | 186 ± 32 |  |  | < 200 |
|  | C[C@@H]([C@H](O)c1ccc(O)cc1)N1CCC(Cc2ccccc2)CC1 [Ro 25‐6981] | 42 ± 6 | 60 ± 27 | approximately 70% | 60 ± 30 | 49 ± 8 |  |  |
